Measurements from US20170196893A1, “TREATMENT OF INFLAMMATORY DEMYELINATING DISEASE WITH AGONISTS OF FARNESOID X RECEPTOR” (The Board of Trustees of the Leland Stanford Junior …, priority 2016, published 2017).

Key:
Format in all cases: in vivo, mouse
[1] = tested on: splenocytes (CD4+ T cells, CD8+ T cells, CD19+ B cells); assay: FACS analysis of splenocytes harvested from treated MOG35-55-immunized mice; details: eleven days oral dosing; for BTLA expression on CD4+ T cells: vehicle 2.87%; for PD1 expression on CD4+ T cells: vehicle 3.5%; for PD-L1 expression on CD4+ T cells: vehicle 8.32%; for BTLA expression on CD19+ B cells: vehicle 12.21%; for BTLA expression on CD8+ T cells: vehicle (WT) 0.78%; for PD1 expression on CD8+ T cells: vehicle (WT) 1.12%; for PD-L1 expression on CD8+ T cells: vehicle (WT) 5.63%; for CD3+CD8+ T cells: vehicle (WT) 6.75%; for CD3+CD4+ T cells: vehicle (WT) 8.34%; for PD1 expression on CD19+ B cells: vehicle (WT) 11.58%; for PD-L1 expression on CD19+ B cells: vehicle (WT) 12.21%; for CD19+B220+ B cells: vehicle (WT) 42.82%; for VLA-4 (CD29+CD49d+) expression on T cells: vehicle (WT) 44.12%; for VLA-4 (CD29+CD49d+) expression on B cells: vehicle (WT) 56.35%
Description: Flow cytometry Cells were stained according to standard protocols, run on a FACScan flow cytometer (BD Biosciences), and analysed with CellQuest software (BD Immunocytometry Systems). The antibody conjugates used were PerCPCy5.5 anti-CD3, FITC anti-CD4, PE anti-CD8, PE anti-B220, PerCp-Cy5.5 anti-B220, FITC anti-CD19, PE anti-PD1, PE anti-PD-L1, PE anti-BTLA, PE anti-CD29, and FITC anti-CD49d (BD Pharmingen & eBioscience)

[2] = tested on: experimental autoimmune encephalomyelitis (EAE); assay: Active EAE, clinical scores of mice with established EAE; details: 5 mg/kg daily oral, 6-ECDCA vs CDCA vs vehicle (FIG. 3B)
[3] = tested on: MOG35-55-specific lymphocytes; assay: 72 h proliferation assay (3H-thymidine) of splenocytes/lymph node cells harvested from treated mice, restimulated with MOG35-55
Procedure: (§1) Proliferation and cytokine assays. Splenocytes and lymph nodes were harvested and stimulated with increasing concentrations of MOG35-55 for a total of 72 hours. For assessment of proliferation, 1 μCi of ^3H-thymidine was added to each well for the final 18-24 hours of culture, and incorporation of radioactivity was measured by using a Betaplate scintillation counter. Cytokine assays were performed on culture supernatants after 72 hours of culture by using the IL-2, IL-6, IFNgamma, and TNF BD OptEIA™ Mouse ELISA kits (BD Biosciences) or Mouse IL-17 DuoSet ELISA Development kit (R&D Systems).

splenocytes = assay: Cytokine production (ELISA) by splenocytes harvested from treated mice, restimulated with MOG35-55; details: daily oral treatment of established EAE (FIG. 3D)
Procedure: as §1

[4] = Serum lipid panel analysis of treated MOG35-55-immunized mice fasted overnight; details: eleven days of oral dosing after EAE immunization, overnight fast (FIG. 4A)
Description: Serum Lipid Panel Analysis. Serum from mice fasted overnight was submitted to the Diagnostic Laboratory at Stanford University, Department of Comparative Medicine for a full lipid panel analysis.

[5] = tested on: experimental autoimmune encephalomyelitis (EAE); assay: Adoptive transfer EAE with cells of treated donor mice; details: donor mice treated eleven days, cells restimulated 72 h with MOG35-55 and rIL-12; vs vehicle treated donors (FIG. 4D)
Procedure: Mice and EAE Induction. C57BL/6J and FXRKO (B6.129x1(FVB)-Nr1h4tm1Gonz/J, #0007214) female mice were purchased from the Jackson Laboratory. Animal experiments were approved by, and performed in compliance with, the National Institute of Health guidelines of the Institutional Animal Care and Use Committee at Stanford University. For induction of active and adoptive transfer of EAE, 8- to 12-week-old female mice were immunized subcutaneously with 100 μg of MOG35-55 emulsified in complete Freund's adjuvant (CFA), consisting of incomplete Freund's Adjuvant and 0.4 mg of heat inactivated Mycobacterium tuberculosis, strain H37 RA (Difco Laboratories). On days 0 and 2, mice were also injected intravenously or intraperitoneally with 400 ng pertussis toxin in 0.2 ml 1×PBS. Adoptive transfer requires harvesting lymph nodes and spleens ten days after immunization. Combined lymphocytes and splenocytes are cultured in bulk, at 5×10^7 cells/ml for seventy-two hours in the presence of MOG35-55 (20 μg/ml) and rIL-12 (10 ng/ml, R&D systems). Cells are harvested and washed twice before transfer of 3×10^7 cells in 0.2 ml 1×PBS into naive 6-7 week old female mice, intraperitoneally. Clinical disease was monitored daily using the following scoring system: 0, no disease; 1, limp tail; 2, hind limb weakness; 3, hind limb paralysis; 4, hind limb and forelimb paralysis; 5, death.

Row | SMILES | BTLA expression on CD4+ T cells [1] [%] | PD1 expression on CD4+ T cells [1] [%] | PD-L1 expression on CD4+ T cells [1] [%] | BTLA expression on CD19+ B cells [1] [%] | BTLA expression on CD8+ T cells [1] [%] | PD1 expression on CD8+ T cells [1] [%] | PD-L1 expression on CD8+ T cells [1] [%] | CD3+CD8+ T cells [1] [%] | CD3+CD4+ T cells [1] [%] | PD1 expression on CD19+ B cells [1] [%] | PD-L1 expression on CD19+ B cells [1] [%] | CD19+B220+ B cells [1] [%] | VLA-4 (CD29+CD49d+) expression on T cells [1] [%] | VLA-4 (CD29+CD49d+) expression on B cells [1] [%] | further results
1 | CC[C@H]1[C@@H](O)[C@@H]2[C@H](CC[C@]3(C)[C@@H]([C@H](C)CCC(=O)O)CC[C@@H]23)[C@@]2(C)CC[C@@H](O)C[C@@H]12 [6-ECDCA, 6α-Ethyl-chenodeoxycholic acid] | 2.38 | 2.74 | 6.59 | 6.23 | 1.21 | 1.82 | 9.5 | 12.22 | 7.33 | 12.3 | 11.34 | 30.69 | 36.67 | 51.98 | 
2 | C[C@H](CCC(=O)O)[C@H]1CC[C@H]2[C@@H]3[C@H](O)C[C@@H]4C[C@H](O)CC[C@]4(C)[C@H]3CC[C@]12C [CDCA, Chenodeoxycholic acid] | 2.77 | 2.64 | 8.43 | 6.76 | 1.92 | 1.63 | 12.3 | 12.92 | 7.89 | 9.58 | 3.79 | 36.07 | 33.78 | 49.16 | Clinical EAE score (average EAE disease grade) [2]: clinical disease was ameliorated; T cell recall responses to MOG35-55 ([3]; daily oral treatment of established EAE (FIG. 3C)): significantly suppressed; Recall responses of MOG35-55-specific lymphocytes (proliferation) ([3]; eleven days of oral dosing, combined splenocytes and lymphocytes, vs vehicle (FIG. 4B)): greatly reduced; IFN-gamma production (splenocytes): decreased; IL-6 production (splenocytes): decreased; IL-17 production (splenocytes): not significantly altered; TNF production (splenocytes): decreased; Serum HDL levels [4]: decreased; Serum cholesterol levels [4]: decreased; Serum low-density lipoprotein (LDL) levels [4]: not significantly altered; Serum triglycerides [4]: not significantly altered; Clinical EAE scores of naive recipient mice [5]: significantly less severe disease
